Experimental data: patent US9079973B2, “Natriuretic polypeptides for reducing restenosis” (Mayo Foundation for Medical Education and Research, priority 2008, dated 2015)

Assays:
[1] = test system: human aortic vascular smooth muscle cells (HAoSMC); test: HAoSMC proliferation (BrdU uptake); format: cell-based; conditions: serum-supplemented media (5%), 24 hours
[2] = cited from earlier work

For GLSKGCFGLKLDRIGSMSGLGC [CNP], the reduced proliferation ([1]; 10^−5 M NP) was “about 30%”, the reduced proliferation ([1]; 10^−6 M NP) was “about 20%” and the reduced proliferation ([1]; 10^−7 M NP) was “about 20%”. The “half-life after administration to a mammal” value [2] was “about a minute and a half”.
